Laboratory results taken from patent US20070128217A1 (priority 2003, published 2007).

Columns and labels:
[1] = test system: antibodies in sera from SARS patients (sera 1a, 1b, 2, 6, 37, 62, London, SARS-yellow, SARS-green); format: binding, human; parameters: Binding of serum 6 to linear peptides of protein X1 of SARS-CoV Urbani / Binding of serum 37 to linear peptides of protein X1 of SARS-CoV Urbani / Binding of serum 6 to looped/cyclic peptide (PEPSCAN-ELISA) / Binding of serum 37 to looped/cyclic peptide (PEPSCAN-ELISA) / Binding of serum 37 to looped/cyclic peptides of protein X1 of SARS-CoV Urbani / Binding of serum 6 to linear peptides of protein X2 / Binding of serum 37 to linear peptides of protein X2 / Binding of serum 37 to looped/cyclic peptides of protein X2 of SARS-CoV Urbani / Binding of serum 6 to linear peptides of protein M of SARS-CoV Urbani / Binding of serum 37 to linear peptides of protein M of SARS-CoV Urbani / Binding of serum 6 to looped/cyclic peptides of protein M of SARS-CoV Urbani / Binding of serum 37 to looped/cyclic peptides of protein M of SARS-CoV Urbani / Binding of serum 6 to linear peptides of protein X3 of SARS-CoV Urbani / Binding of serum 37 to linear peptides of protein X3 of SARS-CoV Urbani / Binding of serum 37 to looped/cyclic peptides of protein X3 of SARS-CoV Urbani / Binding of serum 6 to linear peptides of protein X4 of SARS-CoV Urbani / Binding of serum 37 to linear peptides of protein X4 of SARS-CoV Urbani / Binding of serum 37 to looped/cyclic peptides of protein X4 of SARS-CoV Urbani / Binding of serum 6 to linear peptides of protein X5 of SARS-CoV Urbani / Binding of serum 37 to linear peptides of protein X5 of SARS-CoV Urbani / Binding of serum 37 to looped/cyclic peptides of protein X5 of SARS-CoV Urbani / Binding of serum 6 to linear peptides of protein N of SARS-CoV Urbani / Binding of serum 37 to linear peptides of protein N of SARS-CoV Urbani / Binding of serum 6 to linear peptide (PEPSCAN-ELISA) / Binding of serum 1a to looped/cyclic peptides of protein N of SARS-CoV Urbani / Binding of serum 1b to looped/cyclic peptides of protein N of SARS-CoV Urbani / Binding of serum 2 to looped/cyclic peptides of protein N of SARS-CoV Urbani / Binding of serum 6 to looped/cyclic peptides of protein N of SARS-CoV Urbani / Binding of serum 37 to looped/cyclic peptides of protein N of SARS-CoV Urbani / Binding of serum 62 to looped/cyclic peptides of protein N of SARS-CoV Urbani / Binding of serum London to looped/cyclic peptides of protein N of SARS-CoV Urbani / Binding of serum SARS-green to looped/cyclic peptides of protein N of SARS-CoV Urbani: unit not given here
[2] = test system: control sera (pooled serum of ten healthy LUMC hospital workers; commercial negative donor pooled serum from the Dutch bloodbank); format: binding, human; parameters: Binding of Control serum LUMC to linear peptides / Binding of Control serum Blood-bank to linear peptides / Binding of Control serum LUMC to looped peptides / Binding of Control Serum Blood-Bank to Looped peptides / Binding of Control serum LUMC to linear peptides of the protein M of SARS-CoV Urbani / Binding of Control serum Blood-bank to linear peptides of the protein M of SARS-CoV Urbani / Binding of Control serum LUMC to looped peptides of the protein M of SARS-CoV Urbani / Binding of Control Serum Blood-Bank to Looped peptides of the protein M of SARS-CoV Urbani: unit not given here
[3] = test system: rabbit serum obtained by immunizing a rabbit with the SARS-CoV strain Frankfurt 1; format: binding; parameters: Binding of a rabbit serum to linear peptides / Binding of a rabbit serum to looped peptides / Rabbit serum linear peptides / Rabbit serum looped peptides / Binding of a rabbit serum to linear peptides of protein N of SARS-CoV Urbani (Rabbit serum linear peptides) / Binding of a rabbit serum to looped/cyclic peptides of protein N of SARS-CoV Urbani (Rabbit serum looped peptides): unit not given here
[4] = test system: recombinant human anti-SARS-CoV antibody 03-018; format: binding; parameters: Binding of antibody 03-018 to linear peptides of the N protein of SARS-CoV Urbani / Binding of antibody 03-018 to looped/cyclic peptides of the N protein of SARS-CoV Urbani: unit not given here

Row | Sequence | Binding of serum 1a to looped/cyclic peptides of protein N of SARS-CoV Urbani [1] | Binding of serum 1b to looped/cyclic peptides of protein N of SARS-CoV Urbani [1] | Binding of serum 2 to looped/cyclic peptides of protein N of SARS-CoV Urbani [1] | Binding of serum 6 to looped/cyclic peptides of protein N of SARS-CoV Urbani [1] | Binding of serum 37 to looped/cyclic peptides of protein N of SARS-CoV Urbani [1] | Binding of serum 62 to looped/cyclic peptides of protein N of SARS-CoV Urbani [1] | Binding of serum London to looped/cyclic peptides of protein N of SARS-CoV Urbani [1] | Binding of serum SARS-green to looped/cyclic peptides of protein N of SARS-CoV Urbani [1] | Binding of serum SARS-yellow to looped/cyclic peptides of protein N of SARS-CoV Urbani [1] | Binding of Control Serum Blood-Bank to Looped peptides [2] | Binding of Control serum Blood-bank to linear peptides [2] | Binding of Control serum LUMC to linear peptides [2] | Binding of Control serum LUMC to looped peptides [2] | Binding of antibody 03-018 to linear peptides of the N protein of SARS-CoV Urbani [4] | Binding of antibody 03-018 to looped/cyclic peptides of the N protein of SARS-CoV Urbani [4] | Binding of serum 1a to linear peptides of protein N of SARS-CoV Urbani [1] | Binding of serum 1b to linear peptides of protein N of SARS-CoV Urbani [1] | Binding of serum 2 to linear peptides of protein N of SARS-CoV Urbani [1] | Binding of serum 6 to linear peptides of protein N of SARS-CoV Urbani [1] | Binding of serum 37 to linear peptides of protein N of SARS-CoV Urbani [1] | also measured
1 | PEQTQGNFGDQDLIR | 0.4 | 0.4 | 0.4 | 0.2 | 0.6 | 0.4 | 0.4 | 0.4 | 0.6 | 0.5 | 0.8 | 0.9 | 0.6 | 0.1 | 0.2 | – | – | – | – | – | Recognition of the peptide by sera of SARS-CoV infected individuals, and form (linear, looped/cyclic) in which it is recognized [1]: recognized in linear form; Binding of a rabbit serum to linear peptides of protein N of SARS-CoV Urbani (Rabbit serum linear peptides) [3]: 0.1; Binding of a rabbit serum to looped/cyclic peptides of protein N of SARS-CoV Urbani (Rabbit serum looped peptides) [3]: 0.5
2 | NGARPKQRRPQGLPN | 0.3 | 0.2 | 0.3 | 0.4 | 0.6 | 0.5 | 0.5 | 0.4 | 0.4 | 0.6 | 0.7 | 0.6 | 0.6 | 0.1 | 0.3 | 0.2 | 0.1 | 0.2 | 0.1 | 0.7 | Binding of serum 62 to linear peptides of protein N of SARS-CoV Urbani [1]: 0.5; Binding of serum London to linear peptides of protein N of SARS-CoV Urbani [1]: 0.4; Binding of serum SARS-green to linear peptides of protein N of SARS-CoV Urbani [1]: 0.3; Binding of serum SARS-yellow to linear peptides of protein N of SARS-CoV Urbani [1]: 0.5; Binding of a rabbit serum to linear peptides of protein N of SARS-CoV Urbani (Rabbit serum linear peptides) [3]: 0.1; Binding of a rabbit serum to looped/cyclic peptides of protein N of SARS-CoV Urbani (Rabbit serum looped peptides) [3]: 0.3
3 | IGYYRRATRRVRGGD | 0.3 | 0.2 | 0.5 | 0.3 | 0.7 | 0.6 | 0.4 | 0.3 | 0.5 | 0.7 | 0.7 | 0.5 | 0.7 | 0.1 | 0.2 | 0.2 | 0.1 | 0.1 | 0.2 | 0.5 | Binding of serum 62 to linear peptides of protein N of SARS-CoV Urbani [1]: 0.4; Binding of serum London to linear peptides of protein N of SARS-CoV Urbani [1]: 0.4; Binding of serum SARS-green to linear peptides of protein N of SARS-CoV Urbani [1]: 0.2; Binding of serum SARS-yellow to linear peptides of protein N of SARS-CoV Urbani [1]: 0.6; Recognition of the peptide by the rabbit serum [3]: recognized
4 | EAQPLPQRQKKQPTV | 0.2 | 0.1 | 0.2 | 0.2 | 0.3 | 0.2 | 0.3 | 0.2 | 0.5 | – | – | – | – | 0.1 | 0.2 | 0.2 | 0.2 | 0.3 | 0.3 | 0.7 | Binding of serum 62 to linear peptides of protein N of SARS-CoV Urbani [1]: 0.7; Binding of serum London to linear peptides of protein N of SARS-CoV Urbani [1]: 1.2; Binding of serum SARS-green to linear peptides of protein N of SARS-CoV Urbani [1]: 0.4; Binding of serum SARS-yellow to linear peptides of protein N of SARS-CoV Urbani [1]: 1.3; Control Serum Blood-Bank Looped peptides [2]: 0.4; Control serum Blood-bank linear peptides [2]: 0.6; Control serum LUMC linear peptides [2]: 0.7; Control serum LUMC looped peptides [2]: 0.4; Binding of a rabbit serum to linear peptides of protein N of SARS-CoV Urbani (Rabbit serum linear peptides) [3]: 0.1; Binding of a rabbit serum to looped/cyclic peptides of protein N of SARS-CoV Urbani (Rabbit serum looped peptides) [3]: 0.0
5 | SGPDDQIGYYRRATR | 0.4 | 0.3 | 0.5 | 0.4 | 0.8 | 0.7 | 0.5 | 0.5 | 0.7 | 0.8 | 0.8 | 0.7 | 0.9 | 0.1 | 0.3 | 0.2 | 0.1 | 0.2 | 0.2 | 0.6 | Binding of serum 62 to linear peptides of protein N of SARS-CoV Urbani [1]: 0.6; Binding of serum London to linear peptides of protein N of SARS-CoV Urbani [1]: 0.4; Binding of serum SARS-green to linear peptides of protein N of SARS-CoV Urbani [1]: 0.4; Binding of serum SARS-yellow to linear peptides of protein N of SARS-CoV Urbani [1]: 0.6; Recognition of the peptide by the rabbit serum [3]: recognized
